{
  "source": "paper PMC5162400",
  "about": "“Discovery of novel inhibitors disrupting HIF-1α/von Hippel–Lindau interaction through shape-based screening and cascade docking” (PeerJ, 2016)",
  "key": {"[1]": {"molecular_target": "T1, pVHL (Homo sapiens, UniProt P40337)", "T1 sequence (P40337 whole entry)": "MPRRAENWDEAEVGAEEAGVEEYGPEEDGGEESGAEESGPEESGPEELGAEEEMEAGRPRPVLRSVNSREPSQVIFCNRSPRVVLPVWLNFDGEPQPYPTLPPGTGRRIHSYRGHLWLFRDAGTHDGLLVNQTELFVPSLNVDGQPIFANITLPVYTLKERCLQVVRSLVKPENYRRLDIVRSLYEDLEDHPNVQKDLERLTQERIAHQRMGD", "T1 sequence (Q15369 whole entry partner)": "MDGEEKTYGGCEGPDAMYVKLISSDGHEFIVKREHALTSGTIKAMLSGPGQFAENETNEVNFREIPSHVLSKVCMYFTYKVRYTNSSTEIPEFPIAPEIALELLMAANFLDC", "T1 sequence (Q15370 whole entry partner)": "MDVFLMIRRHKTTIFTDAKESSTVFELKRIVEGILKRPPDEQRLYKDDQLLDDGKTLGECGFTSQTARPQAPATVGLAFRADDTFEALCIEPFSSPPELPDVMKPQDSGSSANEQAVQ", "set-up": "method as in earlier work", "settings": "native ligands of pVHL crystal complexes, labelled by PDB ID, ref Buckley et al., 2012b, Van-Molle et al., 2012a, Dias et al., 2014, Galdeano et al., read-out: Kd of native ligand; cited from earlier work"}, "[2]": {"molecular_target": "T1, pVHL", "assay": "Fluorescence polarization binding assay (FAM-DEALA-Hyp-YIPD displacement from V1-213CB)", "settings": "inhibition of HIF-1α/pVHL interaction, mean ± SEM", "description": "The fluorescence intensities parallel (Intparallel) and perpendicular (Intperpedicular) to the plane of excitation were measured in black 96-well NBS assay plates (Greiner Microlon) at room temperature. The plate was then shaken for 1 min and centrifuged for 1 min. […] The inhibition percentage was determined by normalizing to maximum and minimum polarization and graphed against the log [VL]."}},
  "data": [
    {"smiles": "Cc1ncsc1-c1ccc(CNC(=O)C2CC(O)CN2C(=O)c2cccc(N)c2C)cc1", "note": "(stereo not drawn) [Compound 4B9K]", "values": [
      {"measurement": "Kd", "setting": "[1]", "value": 0.7, "unit": "µM"}
    ]},
    {"smiles": "c1ccc(-c2ccc(-c3nc4ccc(-c5ccccc5)cc4o3)cc2)cc1", "note": "[Compound 6]", "values": [
      {"measurement": "IC50", "setting": "[2]", "value": "102 ± 6.13", "unit": "µM"}
    ]},
    {"smiles": "CC1=NN(c2ccccc2)C(=O)/C1=N\\Nc1ccc(N2CCOCC2)cc1", "note": "[Compound 9]", "values": [
      {"measurement": "IC50", "setting": "[2]", "value": "2 ± 0.14", "unit": "µM"}
    ]}
  ]
}
